How the values were obtained:
Type in all cases: cell-based, Escherichia coli
[1] = test system: E. coli clinical strain 7704; assay: clinical gradient diffusion (E-test, bioMérieux); settings: gradient diffusion overnight
Procedure: (§1) Following testing of the QC strains, the cAST platform was used to test two E. coli clinical isolates. Following the same protocol used to test the QC strains, the clinical isolates were tested with ten two-fold dilution gentamicin concentrations spanning 0.5 μg/mL to 256 μg/mL. Testing was conducted blind and results were subsequently compared with clinical results generated using gradient diffusion (E-test, bioMérieux).

[2] = test system: E. coli clinical strain 7426; assay: clinical gradient diffusion (E-test, bioMérieux); settings: gradient diffusion overnight
Procedure: as §1

[3] = test system: E. coli clinical strain 7704; assay: cAST platform antimicrobial susceptibility testing (resazurin, capillary format)
Procedure: (§2) The disclosure includes use of steel capillary tubes of size 50 mm×1.59 mm×0.76 mm (L×O.D.×I.D.) to hold the samples. Alternatively, glass capillary tubes (Drummond Scientific) of similar size can also be used. However, in the case of glass, the ends of the tubes are coated with paint or a similar substance to prevent excess light from the LEDs leaking into the fiber-optic detector. During sample loading, 4 μL liquid culture droplets were individually pipetted onto a clean substrate and then loaded into the tubes via capillary action. The capillary tubes used as conduits were sterilized prior to loading through autoclaving. Following loading, tubes were inserted into the sample holder in a configuration that allows light from the LEDs to pass through the sample and into the fiber-optic detector. Since the volume capacity of the capillary tubes was higher than the sample volume of 4 μL, the tubes were loaded with the fluid-filled side near the light-source as this configuration was determined to yield higher signal-to-noise ratios. This approach to sample loading is encompassed by the disclosure. During AST, the cAST platform was placed inside a benchtop incubator (Corning) set to 37° C. in ambient air. A small portable humidifier was also placed inside the incubator (80-85% relative humidity) to minimize sample drying during incubation. Thus, in embodiments, a system of the disclosure may include a humidifying device or composition to act as […]. Every 30 min, spectral intensity measurements were automatically taken for each sample and data were transferred and stored on a computer for processing using OceanView (Ocean Optics).
(§3) The cAST platform was initially used to test five different quality control (QC) strains: Escherichia coli ATCC 25922, Enterobacter cloacae ATCC 13047, Acinetobacter baumannii ATCC BAA-747, Pseudomonas aeruginosa ATCC 27853, and Escherichia coli K12 ER2267 (kanamycin resistant). To prepare inocula for AST, strains were first streaked on Mueller-Hinton II agar plates (Becton, Dickinson and Company) and incubated overnight at 37° C. in ambient air. For the kanamycin resistant E. coli K12 strain, the agar was supplemented with kanamycin (MilliporeSigma) at a final concentration of 50 μg/mL. Liquid cultures were then prepared by inoculating single colonies into CAMHB, followed by overnight incubation at 37° C. in ambient air. […] Using a spectrophotometer (V-1200, VWR), the OD625nm absorbance corresponding to a 0.5 McFarland standard was verified to be in the range of 0.08-0.13^21. […] Resazurin is a redox indicator that is reduced by metabolically active cells into resorufin, leading to significant colorimetric and fluorescent changes in the culture media which can be measured to gauge bacterial growth^20. […]

[4] = test system: E. coli clinical strain 7426; assay: as above
Procedure: as §2, §3

[5] = cAST in categorical agreement with gradient diffusion

Which results are given for gentamicin?
MIC [1]: 1.5 µg/mL; MIC [2]: ≥ 256 µg/mL; predicted MIC ([3]; cAST at 6 h): 1 µg/mL; susceptibility category [3, 5]: susceptible (susceptible (≤4 μg/mL)); predicted MIC ([4]; cAST at 6 h): 128 µg/mL; susceptibility category [4, 5]: resistant (resistant (≥16 μg/mL))

Reference: patent US12391972B2, “Capillary-based system for accelerated antimicrobial susceptibility testing” (Cornell University, priority 2019, dated 2025)
